Measurements taken from patent US11844846B2, “Styrylbenzothiazole derivatives and uses in imaging methods” (Emory University, priority 2018, dated 2023).
“Also recorded” adds a separate entry of the source.

Assays:
[1] = target: α-Syn PFFs (Homo sapiens, UniProt P37840); test: fluorescence spectroscopy titration with α-Syn PFFs; assay type: binding; settings: 0.08 μM fibrils, 5 μM small molecule; result in words
Experimental: (§1) A fluorescent titration assay was conducted. The fluorescent emission intensities were determined with 0.08 μM of various fibrils in the presence of 5 μM of the small molecules.
(§2) To further investigate the selected compounds binding activities with α-Syn PFFs, fluorescence spectroscopy titrations were conducted to quantitatively measure compounds emission intensity when interacting with different concentrations of α-Syn PFFs. The UV spectrum of each compound was determined and selected for the optimal wavelength to conduct the fluorescence spectroscopic studies.

[2] = target: T1, Aβ PFFs (Homo sapiens, UniProt P05067); test: fluorescence spectroscopy titration with Aβ PFFs; assay type: binding; settings: 0.08 μM fibrils, 5 μM small molecule; result in words
T1 construct: counter-screening with Tau and Aβ PFFs
T1 sequence (P05067 672-713 limits assumed): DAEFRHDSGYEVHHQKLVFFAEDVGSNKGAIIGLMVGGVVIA
Experimental: as §1, §2

[3] = target: Tau PFFs (Homo sapiens, UniProt P10636); test: fluorescence spectroscopy titration with Tau PFFs; assay type: binding; settings: 0.08 μM fibrils, 5 μM small molecule; result in words
Tau PFFs, sequence (P10636 whole entry): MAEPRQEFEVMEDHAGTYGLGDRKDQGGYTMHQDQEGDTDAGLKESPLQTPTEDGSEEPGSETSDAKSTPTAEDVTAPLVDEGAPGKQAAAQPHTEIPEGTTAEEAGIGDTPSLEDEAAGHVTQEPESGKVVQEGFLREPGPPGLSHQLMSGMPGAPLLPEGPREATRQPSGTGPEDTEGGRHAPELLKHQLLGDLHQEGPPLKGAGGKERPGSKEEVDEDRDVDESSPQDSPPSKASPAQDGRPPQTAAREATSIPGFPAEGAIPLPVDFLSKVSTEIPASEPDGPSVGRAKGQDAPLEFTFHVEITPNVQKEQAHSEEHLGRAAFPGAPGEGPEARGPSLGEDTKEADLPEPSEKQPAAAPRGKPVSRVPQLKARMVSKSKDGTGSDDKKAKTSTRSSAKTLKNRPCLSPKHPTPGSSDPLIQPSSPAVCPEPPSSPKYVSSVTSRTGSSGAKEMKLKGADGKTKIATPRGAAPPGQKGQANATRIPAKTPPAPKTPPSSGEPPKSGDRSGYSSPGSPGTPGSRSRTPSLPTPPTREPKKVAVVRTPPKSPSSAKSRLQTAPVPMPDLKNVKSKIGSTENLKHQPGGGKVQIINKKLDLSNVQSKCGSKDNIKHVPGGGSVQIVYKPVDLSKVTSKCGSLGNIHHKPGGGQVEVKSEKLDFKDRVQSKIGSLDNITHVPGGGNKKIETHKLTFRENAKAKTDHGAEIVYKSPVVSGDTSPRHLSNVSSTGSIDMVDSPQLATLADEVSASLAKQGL
Experimental: as §1, §2

[4] = tested on: α-Syn aggregated neurons; test: neuronal α-Syn aggregation model, fluorescent microscopy; assay type: cell-based; settings: primary cultured neurons, AAV-α-Syn plus α-Syn PFFs
Text: A series of derivatives were synthesized by including an amino group and a methyl group on benzothiazole to increase the brain permeability and fluorescent signals. The derivatives were subsequently subjected to α-Syn PFFs binding assay and counter-screening with Tau and Aβ PFFs. […] These compounds were screened on the neuronal α-Syn, Tau and Aβ aggregation model for the binding selectivity. Primary cultured neurons were infected with AAV-α-Syn, AAV-Tau FL for 7 days, then treated with α-Syn, Tau or Aβ PFFs. In a few days, the positive compounds were added in the primary neurons with indicated aggregates and analyzed under fluorescent microscopy.
Primary cultured neurons were infected with AAV-α-Syn, AAV-Tau FL or AAV-APP fragment virus for 7 days, and then treated with α-Syn, Tau or Aβ PFFs by following the described protocols (Volpicelli-Daley et al., 2014). In a few days, the positive compounds were added in the primary neurons with indicated aggregation.

[5] = target: T2, Lewy bodies in α-Syn A53T virus injected WT mice brain slices (Homo sapiens, UniProt P37840, A53T); test: staining of mouse brain slices with Lewy bodies; assay type: binding
T2 construct: from tissue; host or cells: brain (substantia nigra) of wild-type mice injected with α-Syn A53T virus
Experimental: (§3) To further explore whether the positive compounds selectively bind to the Lewy bodies, α-Syn A53T patient-derived mutant virus injected WT mice brain slices were employed. These mice display extensive Lewy bodies in the SN.
(§4) To further explore whether the positive compounds selectively bind to the Lewy bodies, a α-Syn A53T patient-derived mutant virus was injected into WT mice brain slices. These mice display extensive Lewy bodies in the Substantial nigra (SN). Moreover, P301S mice expressed neurofibrillary tangles (NFT). The Lewy bodies were labeled with p-α-Syn S129 antibody and the positive aggregates were also labeled with the fluorescent signals from the small molecules. […] However, it was worth noting that almost none of the tested compounds were reactive with NFT.

[6] = target: T3, senile plaques in 5×FAD and 3×Tg mice brain sections (Homo sapiens, UniProt P05067); test: staining of mouse brain sections with senile plaques; assay type: binding
T3 construct: Aβ-enriched senile plaques; from tissue; host or cells: brain sections of 5×FAD and 3×Tg mice
T3 sequence (P05067 672-713 limits assumed): as the sequence (P05067 672-713 limits assumed) above

[7] = tested on: NFT in Tau P301S and 3×Tg mice brain sections; test: staining of mouse brain sections with NFT; assay type: binding
Experimental: as §3, §4

[8] = target: T4, LBs and LNs in DLB and MSA patient brains (Homo sapiens, UniProt P37840); test: ex vivo screening on DLB and MSA patient brain sections; assay type: binding
T4 construct: from tissue; host or cells: brain sections of DLB and MSA patients
Text: (§5) Ex vivo screening was extended into human DLB, MSA and AD patient samples. […] Since there are detectable α-Syn aggregates in AD patient brains, these compounds colocalized with p-S129 positive α-Syn inclusions.
(§6) The ex vivo screening was extended into human DLB, MSA and AD patient samples. Neurodegenerative disease of DLB (dementia with Lewy Bodies) and MSA belongs to synucleinopathies with well-defined Lewy bodies.

[9] = tested on: senile plaques or NFT in AD; test: ex vivo screening on AD patient brain sections; assay type: binding, human
Text: as §5, §6

[10] = F0502B in vivo PK study and B/P ratios; design: species or system mouse; settings: mice, i.v. 5 mg/kg
Experimental: To ensure that F0502B meets a PET tracer's kinetic criteria with rapid penetration into the brain and swift wash out, an in vivo PK study was performed in mice with i.v. injection of 5 mg/kg of F0502B.

[11] = target: T5, Lewy bodies positive with anti-p-α-Syn S129 in A53T PD mouse model (Homo sapiens, UniProt P37840, A53T); test: brain section staining after in vivo administration, Lewy bodies
T5 construct: from tissue; host or cells: brain (substantia nigra) of wild-type mice injected with α-Syn A53T virus
Experimental: (§7) […] In 2 h, the mice were sacrificed and stained the mouse brain sections with anti-Aβ, AT8 and p-S129 and ThS, respectively.
(§8) The p-S129 positive Lewy bodies in A53T PD mice were further confirmed by anti-aggregated α-Syn 5G2 antibody.

[12] = tested on: senile plaques and NFT in 5×FAD, 3×Tg and Tau P301S mice; test: brain section staining after in vivo administration, senile plaques and NFT; design: species or system mouse
Experimental: as §7, §8

[13] = target: α-Syn fibrils (Homo sapiens, UniProt P37840); test: competitive binding assay with α-Syn fibrils and [18F]F0502B; settings: fixed concentrations of α-Syn fibrils and [18F]F0502B, increasing concentrations of cold compound
[14] = target: T6, Lewy bodies in the brain sections from LBD patients (Homo sapiens, UniProt P37840); test: autoradiography with [18F]F0502B, human brain slices; assay type: binding; settings: excessive cold compound
T6 construct: from tissue; host or cells: brain sections of LBD patients
Experimental: [^18F]F0502B was evaluated in vitro and ex vivo binding assays to validate its specificity. α-Syn, Tau and Aβ PFFs were respectively incubated with increasing concentrations of [^18F]F0502B. The binding data were analyzed by curve fitting using nonlinear regression to obtain Kd and Bmax values. The Kd and a Bmax manifested the specific binding affinity with different fibrils. […] Autoradiography with [^18F]F0502B in human brain slices was performed. […] Together, these findings support that F0502B specifically and tightly binds to α-Syn fibrils in the Lewy bodies.

SMILES: Cc1cc2nc(/C=C/c3ccc(O)c(Br)c3)sc2cc1N(C)CCOCCF [F0502B, (E)-2-bromo-4-(2-(6-((2-(2-fluoroethoxy)ethyl)(methyl)amino)-5-methylbenzo[d]thiazol-2-yl)vinyl)phenol]
- binding to α-Syn PFFs by fluorescent emission intensity [1]: specifically associated with α-Syn fibrils
- binding to Aβ PFFs by fluorescent emission intensity [2]: barely bound to Aβ or Tau fibrils
- binding to Tau PFFs by fluorescent emission intensity [3]: barely bound to Aβ or Tau fibrils
- fluorescent signal in α-Syn aggregated neurons [4]: specifically associated with α-Syn aggregates
- staining of Lewy bodies (p-α-Syn S129 positive) [5]: specifically associated with α-Syn aggregates
- staining of senile plaques [6]: not senile plaques or NFT from 5×FAD, 3×Tg and Tau P301S mice
- staining of NFT [7]: not senile plaques or NFT from 5×FAD, 3×Tg and Tau P301S mice
- staining of LBs and LNs [8]: specifically associated with α-Syn aggregates
- staining of senile plaques or NFT (Aβ, AT8 positive aggregates) [9]: not senile plaques or NFT from 5×FAD, 3×Tg and Tau P301S mice or AD patients
- C1 rate [10]: approximately 3.92 L/h/kg
- decay in plasma ([10]; result in words): almost completely decayed at 8 h in the plasm
- brain entry and accumulation ([10]; result in words, 5 mg/kg): swiftly entered the brain and accumulated in the brain compared to the plasma; also recorded: preferentially enriched in the brain
- Kp at 0.5 h ([10]; mouse, brain, iv, 0.5 h, read-out: B/P ratio): 4.16
- Kp at 1 h ([10]; mouse, brain, iv, 1 h, read-out: B/P ratio): 13.4
- Kp at 4 h ([10]; mouse, brain, iv, 4 h, read-out: B/P ratio): 26
- half-life ([10]; mouse, plasma, iv, read-out: half-life t1/2 (converted)): 1.16 h
- co-localisation with anti-p-S129 stained Lewy bodies ([11]; F0502B 5 mg/kg i.v., mice sacrificed in 2 h, ThS stain on sections): colocalized with both F0502B and ThS
- staining of Lewy body by brain generated F0502B ([11]; two hours after tail injection of 2 mg/kg of compound 13, A53T mice): selectively stained Lewy body in A53T mice
- staining of senile plaques and NFT ([12]; F0502B 5 mg/kg i.v., 2 h, 5×FAD, 3×Tg, Tau P301S mice): does not co-stain Aβ or Tau aggregates
- staining of senile plaques or NFT by brain generated F0502B ([12]; two hours after tail injection of 2 mg/kg of compound 13, AD mouse models): not senile plaques or NFT in various AD mouse models
- displacement of [18F]F0502B from α-Syn fibrils [13]: selectively stripped off by increasing concentrations of cold F0502B
- blocking of [18F]F0502B binding in brain sections [14]: binding activities were blocked by excessive cold F0502B
